Assay results published in patent US20170275249A1, “SMALL LIPOPEPTIDOMIMETIC INHIBITORS OF GHRELIN O-ACYL TRANSFERASE” (THE REGENTS OF THE UNIVERSITY OF CALIFORNIA, priority 2014, published 2017).
pIC50: −log10 of the molar value. Read-outs that look alike come from different tables or passages of the source. One block for each molecule: values may come before it.

Key:
[1] = system: GOAT/preproghrelin-expressing INS-1 cells; assay: acyl ghrelin production in intact cells, Western immunoblot; type: cell-based; conditions: 18 hours incubation
Method: Molecular parameters for Compound 1 were well within those characteristics of orally bioavailable drugs. In INS-1 cell culture, compounds were administered to cultured INS-1 cells that had been engineered to express GOAT and preproghrelin. After incubating the cells in the presence of the compounds for 18 hours, the cells were lysed and ghrelin species (acyl ghrelin vs. total ghrelin) present in the lysates were quantified by Western immunoblot. […] Total ghrelin levels were unchanged irrespective of the inhibitor concentration that was present.

measured LogD = type: physicochemical
[2] = system: acyl ghrelin : total ghrelin ratio in serum; assay: time course of serum acyl ghrelin after IP administration; type: in vivo; conditions: mice, 80 mg/kg IP, FIG. 3
Method: Compound 1 was administered intraperitoneally (IP) to mice (dosed at 80 mg/kg) at time zero and blood samples were collected at indicated timepoints (see FIG. 3). Serum acyl ghrelin: total ghrelin ratios were determined using ELISA with antibodies specific for acyl or des-acyl ghrelin. Inhibitor concentrations were determined using LC/MS/MS detection. […] Reappearance of acyl-ghrelin tracked with the time-dependent change in inhibitor concentration in plasma.

oral bioavailability = type: in vivo
[3] = stability in mouse plasma (LC/MS/MS)
Method: (§1) (Taylor, M. S. et al., 2012, Methods in Enzymology 514:205-228.) For in vitro as well as in vivo pharmacokinetic analyses, inhibitor concentration was determined using LC/MS/MS.
(§2) GOAT inhibitor (Compound 1) and control (Compound 2) were added to liver S9 fractions or mouse plasma and the concentrations of each compound over time were quantified using LC/MS/MS.

[4] = stability in liver S9 fractions (LC/MS/MS); conditions: human liver S9 fractions
Method: as §1, §2

mouse GOAT = target: T1, mouse GOAT (Mus musculus, UniProt P0C7A3); assay: ghrelin radio-octanoylation assay (Yang et al.), Sf9 membrane fractions; type: biochemical; conditions: for IC50: Table 1, inhibitory activity against GOAT, cells printed in nM; for GOAT-inhibiting activity in vitro: relative to Compound 1
T1 construct: made in house; host or cells: Sf9 insect cells (baculovirus), membrane fractions
T1 sequence (P0C7A3 1-435): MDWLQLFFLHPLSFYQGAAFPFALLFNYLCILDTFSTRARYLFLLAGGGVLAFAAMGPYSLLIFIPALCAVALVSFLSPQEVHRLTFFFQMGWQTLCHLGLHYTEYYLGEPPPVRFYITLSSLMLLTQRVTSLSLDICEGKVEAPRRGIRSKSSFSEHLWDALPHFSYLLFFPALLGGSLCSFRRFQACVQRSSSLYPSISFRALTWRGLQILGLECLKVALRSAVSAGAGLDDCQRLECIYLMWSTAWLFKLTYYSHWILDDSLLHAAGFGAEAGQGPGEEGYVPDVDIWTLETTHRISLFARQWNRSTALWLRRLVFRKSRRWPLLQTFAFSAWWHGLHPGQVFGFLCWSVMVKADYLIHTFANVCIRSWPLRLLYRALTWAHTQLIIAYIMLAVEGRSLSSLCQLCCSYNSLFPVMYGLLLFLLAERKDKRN
Method: In vitro activity was quantified using the octanoylation assay developed by Yang et al. (2008, Proc. Natl. Acad. Sci. USA 105:10750-10755). No pure or soluble form of GOAT that retains enzymatic activity is thus far available. Recombinant poly-His-tagged ghrelin was incubated with radiolabeled octanoyl CoA and membrane fractions isolated from Sf9 cells infected with a GOAT-encoding baculovirus. Recovery of acyl- and des-acyl ghrelin using a Ni^2+ affinity column was followed by scintillation counting to determine the extent of acyltransferase activity, which was reported as a percentage of control.
Thiosarcosine derived peptidomimetic Compound 1 (of Example 1.1) and truncated analog Compound 2 (of Example 1.2), which served as a negative control, were screened for GOAT-inhibiting activity using membrane fractions prepared from Sf9 cells infected with baculovirus encoding mouse GOAT as a source of the acyltransferase. The assay detected specific acyl transfer from tritiated octanoyl-CoA to recombinant His-tagged proghrelin.

[5] = mouse plasma
Method: as §1, §2

[6] = human
Method: as §1, §2

Molecule: (1s,3R)-3-BUTYL-N—(((R)-1-((S)-3,3-DIMETHYL-2-(2-(METHYLAMINO)ETHANETHIOAMIDO)BUTANOYL)PYRROLIDIN-2-YL)METHYL)CYCLOBUTANE CARBOXAMIDE HEMITARTRATE [Compound 1]
concentration at which production of acyl ghrelin was inhibited ([1]; FIG. 4): greater than 1 μM
concentration at which production of acyl ghrelin was substantially completely blocked ([1]; FIG. 4): above 5 μM
total ghrelin levels ([1]; irrespective of inhibitor concentration): unchanged
Measured LogD (measured LogD): 1.71
time at which acyl-ghrelin recovered [2]: 3 h
acyl-ghrelin in circulation ([2]; within minutes): near undetectable levels
oral bioavailability % F (oral bioavailability): 10-15%
Plasma t1/2 [3]: >10.5 h
stability in mouse plasma [3]: stable
Liver S9 t1/2 [4]: 2.03 h
metabolism by liver S9 fractions [4]: slowly metabolized
pIC50 (mouse GOAT; FIG. 2, tritiated octanoyl-CoA, His-tagged proghrelin): ~7.52
potency compared side-by-side with prior art GOAT inhibitors (mouse GOAT; FIG. 6, versus compounds 3, 4, 5 and 6): by far the most potent inhibitor of GOAT

Molecule: CCCCC1CC(C(=O)NC[C@H]2CCCN2C(=O)[C@@H](N)C(C)(C)C)C1.CCCCC1CC(C(=O)NC[C@H]2CCCN2C(=O)[C@@H](N)C(C)(C)C)C1.O=C(O)C(O)C(O)C(=O)O (stereo partly drawn) [Compound 2, (1s,3R)—N—(((R)-1-((S)-2-AMINO-3,3-DIMETHYLBUTANOYL)PYRROLIDIN-2-YL)METHYL)-3-BUTYLCYCLOBUTANECARBOXAMIDE HEMITARTRATE]
inhibition of acyl ghrelin biosynthesis ([1]; FIG. 4): inactive
Plasma t1/2 [5]: 1.52 h
Liver S9 t1/2 [6]: 2.08 h
GOAT-inhibiting activity in vitro (mouse GOAT): inactive

Molecule: CCCCC1CC(C(=S)NC[C@H]2CCCN2C(=O)[C@@H](NC(=S)CN)C(C)(C)C)C1 (stereo partly drawn) [inhibitor 10, (1s,3R)—N—(((R)-1-((S)-2-(2-AMINOETHANETHIOAMIDO)-3,3-DIMETHYLBUTANOYL)PYRROLIDIN-2-YL)METHYL)-3-BUTYLCYCLOBUTANECARBO-THIOAMIDE HEMITARTRATE]
GOAT-inhibiting activity in vitro (mouse GOAT): equally potent

Molecule: CCCC[C@H]1C[C@@H](C(=O)NC[C@H]2CCCN2C(=O)[C@@H](N)C2CCCCC2)C1 [Entry 9]
IC50 (mouse GOAT): > 3000 nM

Further lines, results first:

IC50 (mouse GOAT): 200 nM
Molecule: CCCC[C@H]1C[C@H](C(=S)NC[C@H]2CCCN2C(=O)[C@@H](NC(=S)CN)C(C)(C)C)C1 [Entry 16, (1s,3R)—N—(((R)-1-((S)-2-(2-AMINOETHANETHIOAMIDO)-3,3-DIMETHYLBUTANOYL)PYRROLIDIN-2-YL)METHYL)-3-BUTYLCYCLOBUTANECARBOTHIOAMIDE]

IC50 (mouse GOAT): > 3000 nM
Molecule: C=CCOC(=O)NCC(=S)N[C@H](C(=O)N1CCC[C@@H]1CNC(=S)C1CC(CCCC)C1)C(C)(C)C (some centres unmarked) [Entry 15]

IC50 (mouse GOAT): 650 nM
Molecule: CCCC[C@H]1C[C@@H](C(=S)NC[C@H]2CCCN2C(=O)[C@@H](NC(=O)CN)C2CCCCC2)C1 [Entry 20]

IC50 (mouse GOAT): > 3000 nM
Molecule: CCCC[C@H]1C[C@@H](C(=O)NC[C@H]2CCCN2C(=O)[C@@H](NC(=N)CN)C2CCCCC2)C1 [Entry 7]

IC50 (mouse GOAT): 25 nM
Molecule: CCCC[C@H]1C[C@H](C(=O)NC[C@H]2CCCN2C(=O)[C@@H](NC(=S)CN)C(C)(C)C)C1 [Entry 26]

IC50 (mouse GOAT): > 3000 nM
Molecule: CCCCC1CC(C(=O)NC[C@H]2CCCN2C(=O)[C@@H](N)C(C)(C)C)C1 (some centres unmarked) [Entry 2]

IC50 (mouse GOAT): 2000 nM
Molecule: CCCC[C@H]1C[C@@H](C(=O)NCCN(C)C(=O)[C@@H](NC(=O)CN)C2CCCCC2)C1 [Entry 1]
